# Assays:
# Format in all cases: in vivo
# [1] = test system: xylene-induced mouse auricle swelling; assay: Xylene-induced mouse auricle swelling; settings: 0.5 mg/mouse/d intragastric, 7 d
# Description: Female SPF-grade Kunming mice weighing 18 g±1 g were purchased from Beijing HFK Bio-technology Co., Ltd., with a license number SCXK (Beijing) 2019-0008. The mice were acclimated to the environment for 3 d before the experiment, and then fed with the experimental drugs every day at 9 a.m. The mice were randomly divided into a blank control group, a dexamethasone (DXM) group, and high-, medium-, and low-dose groups of the water extract of vetiver (the water extract of vetiver prepared in Example 2) or high-, medium-, and low-dose groups of the Radix Astragali water extract (the Radix Astragali water extract prepared in Comparative Example 1), with 8 mice in each group. The mice in each group were intragastrically administered 1 time a day for 7 consecutive days. At 1 h after the final administration, 30 μL of xylene was added to the right ear of each mouse in each group, and while the left ear was kept as a control. After 30 min of the treatment, the mice were killed by neck breaking, and round ear pieces were collected by punching at a same sites of the left and right ears with a 6 mm diameter, and the ear swelling degrees and swelling inhibition rates were calculated. The results were shown in Table 6, swelling inhibition rate (%)=(average swelling degree of blank group−average swelling degree of administration group)/average swelling degree of blank group×100%.
# [2] = test system: carrageenan-induced mouse pedal swelling; assay: Carrageenan-induced mouse pedal swelling; settings: 0.5 mg/mouse/d, 7 d
# Description: (§1) Female SPF-grade Kunming mice weighing 18 g±1 g were purchased from the Beijing HFK Bio-technology Co., Ltd., with a license number SCXK (Beijing) 2019-0008. The mice were acclimated to the environment for 3 d before the experiment, and then fed with the experimental drugs. The mice were randomly divided into a blank control group, a DXM group, and high-, medium-, and low-dose groups of the water extract of vetiver (the water extract of vetiver prepared in Example 2) or high-, medium-, and low-dose groups of the Radix Astragali water extract (the Radix Astragali water extract prepared in Comparative Example 1), with 8 mice in each group. The mice in each group were administered continuously for 7 d. At 1 h after the final administration, 1% carrageenan was subcutaneously injected into the sole of the right hind limb to induce inflammation (at 0.1 mL/mouse). At 0 h, 1 h, 2 h, 3 h, and 4 h of Inflammatory treatment, the thickness of the paws of the mice was measured with a micrometer, and the swelling degree and swelling inhibition rate of the paws were calculated.
# [3] = NO content in serum of mice (carrageenan model); settings: 0.5 mg/mouse/d, 7 d; mice of Use Example 6
# Description: as §1
# The mice in each experimental group in Use Example 6 were used as research objects. Blood was collected from eyeballs, serum was separated, stored at −20° C., and level of NO in serum was determined. […]
compound,measurement,setting,value
"C[C@@H]1C[C@H]2[C@@H]3CCC4=CC(=O)C=C[C@]4(C)[C@@]3(F)[C@@H](O)C[C@]2(C)[C@@]1(O)C(=O)CO [DXM, dexamethasone]",Swelling degree,[1]; 30 min after xylene,2.033 ± 0.907 mg
same,Swelling inhibition rate,[1]; vs blank group,60.646%
same,inhibition rate of pedal swelling,[2]; 0 h,14.323%
same,pedal swelling degree,[2]; 0 h after carrageenan,0.995 ± 0.076
same,inhibition rate of pedal swelling,[2]; 1 h,29.302%
same,pedal swelling degree,[2]; 1 h after carrageenan,1.090 ± 0.134
same,inhibition rate of pedal swelling,[2]; 2 h,34.994%
same,pedal swelling degree,[2]; 2 h after carrageenan,1.083 ± 0.360
same,inhibition rate of pedal swelling,[2]; 3 h,25.884%
same,pedal swelling degree,[2]; 3 h after carrageenan,1.328 ± 0.040
same,inhibition rate of pedal swelling,[2]; 4 h,13.173%
same,pedal swelling degree,[2]; 4 h after carrageenan,1.438 ± 0.172
same,NO content in serum,[3],7.737 ± 0.431 µmol/mL
